Measured values from patent US20220364056A1, “SHORT-CHAIN FATTY ACID PENTANOATE AS ENHANCER FOR CELLULAR THERAPY AND ANTI-TUMOR THERAPY” (PHILIPPS-UNIVERSITÄT MARBURG, priority 2019, published 2022).

What was measured:
HDAC = assay: fluorogenic HDAC assay on CTL-derived cell lysates; assay type: biochemical, murine; settings: unstimulated CTLs set to 1.0
Description: (A) Experimental design for the treatment of CTLs with the water-soluble fraction of intestinal content derived from SPF or GF mice. (B and C) Frequencies of IFN-γ- and TNF-α-producing CTLs treated with the extract from luminal content derived from indicated organs. Representative results of two experiments are shown (n=3). (D) ELISA was performed to measure the secretion of TNF-α by CLTs treated as shown in (A). (E) Quantitative measurement of total SCFA amounts in fecal samples of SPF and GF mice (n=5). (F and G) The percentage of IFN-γ^+ TNF-α^+ CTLs treated with the indicated SCFAs for three days (n=3, one of three independent experiments is shown). (H) The secretion of TNF-α from CTLs treated with SCFAs was determined by ELISA (n=3, one of two independent experiments is shown). (I) The fluorogenic HDAC assay was applied to measure the HDAC inhibitory activity of SCFAs on CTLs. The value for unstimulated CTLs was arbitrarily set to 1.0. Four independent experiments were performed. (J and K) Representative contour plots (J) and bar graphs (K) showing the frequency of IFN-γ+ and TNF-α+ cells after pentanoate (2 mM) or VPA (0.5 mM) administration. Three similar experiments were performed. (L and M) The frequency of Eomes- and T-bet-expressing CTLs treated with pentanoate (2 mM) or VPA (0.5 mM) for three days was analyzed by flow cytometry (n=4). […]

histones H3 and H4 = assay: Western blot of H3Ac and H4Ac in CD8+ T cells; assay type: cell-based, murine; settings: SCFAs for 3 days
Description: Representative histogram plots (A) and bar graphs (B) are showing the frequency of Annexin V^+ cells. Three similar experiments were performed. (C) Representative effector molecule staining of CD8^+ T cells polarized under suboptimal CTL-inducing conditions, treated with pentanoate or TSA (10 nM Sigma-Aldrich) in presence of 2-DG (1 mM, Sigma-Aldrich) or rapamycin (100 nM, Sigma-Aldrich) for 3 days. Three independent experiments were performed. (D) Western blot analysis of H3Ac and H4Ac in CD8^+ T cells treated with SCFAs for 3 days. (E) Pan-H4Ac ChIP qPCR analysis for Tbx21 promoter accessibility in pentanoate-treated CTLs. Data are from pooled chromatin of three mice. (F and G) CD8^+ T cells isolated from WT and Tbx21^−/− mice were polarized under suboptimal CTL-inducing conditions in presence of increasing pentanoate concentrations. Representative contour plots (F) and bar graphs (G) show the frequency of IFN-γ+ and IL-17A^+ cells. Two similar experiments were performed.

mTOR = assay: phosphorylation of mTOR and S6 in human CTLs; assay type: cell-based; settings: three days
Description: (A and B) CTLs were cultured in medium containing 1.0% FCS and treated with pentanoate (2.5 mM) for three days. Representative histogram plots and bar graphs indicate the phoshorylated levels of mTOR (A) and S6 ribosomal protein (B), respectively (n=3 pooled from three independent experiments). (C and D) Human CTLs were cultured in medium containing 1.0% serum and treated with indicated HDACi for three days. Representative histogram plots and bar graphs indicate the phoshorylated levels of mTOR (C) and S6 ribosomal protein (D), respectively (data points represent four individual healthy donors) (E) Measurement of extracellular acidification rate (ECAR) for in vitro generated murine CTLs cultured with or without 2.5 mM pentanoate for three days. ECAR was measured under basal conditions and in response to glucose (10 mM), oligomycin (2 μM), and 2-deoxy-glucose (2-DG, 100 mM). One of three independent experiments is shown.

human CD8+ T lymphocytes = human CD8+ T lymphocytes differentiated into CTLs, flow cytometry; assay type: cell-based; settings: healthy donors
Description: (A and B) CD8^+ T cells isolated from spleens and LNs were polarized under Tc17-inducing conditions and treated with pentanoate for 3 days. Representative contour plots (A) and bar graphs (B) indicate the frequency of IL-17^+ and IFN-γ+ cells. Three similar experiments were performed. (C and D) CD8^+ T cells isolated from spleens and LNs were polarized under Tc9-inducing conditions and treated with pentanoate for 3 days. Representative contour plots (C) and bar graphs (D) are showing the frequency of IL-9^+ and IFN-γ+ cells. Three similar experiments were performed. (E and F) The expression of granzyme B, IFN-γ and Eomes in pentanoate-treated human CTLs was analysed by flow cytometry. Five independent experiments were performed (E). For Eomes, mean fluorescence intensity (MFI) values are shown (F, n=3).
(A) CD8^+ T cells isolated from peripheral blood of healthy donors were differentiated into CTLs in presence or absence of indicated HDACi. Representative contour plots and dot plots indicate the frequency of TNF-α+ and IFN-γ^+ cells. Data points in the graphs represent individual donors (n=4, performed in 4 independent experiments) (B-G) Phenotyping of pentanoate-treated ROR1-specific CD8^+ CAR T cells (CARROR1 T cells). (B) Experimental setup for the functional analysis is shown. (C) The cytokine secretion (IFN-γ and TNF-α) was analysed in supernatants of pentanoate-treated CARROR1 T cells by ELISA. (D) The surface expression of CD25 was measured by flow cytometry. (E) The secretion of IL-2 was detected in supernatants of CARROR1 T cells by ELISA. (F) Proliferation of CARROR1 T cells was determined by CFSE labelling. CARROR1 T cells pre-treated with pentanoate were stained with CFSE and subsequently co-cultured with […] cells in the absence of pentanoate. CD8^+ T cells without the CAR construct were used as mock control cells. […] The percentage of lysed target cells was determined in 1 hour intervals (effector-to-target cell (E:T) ratio=2.5:1). […]

[1] = tested on: class II HDACs (HDAC4, HDAC5, HDAC6 and HDAC9); assay: HDAC inhibition of recombinant class II HDAC isoforms; assay type: biochemical
Description: (A) The production of SCFAs, branched-chain fatty acids (BCFAs) and medium-chain fatty acids (MCFAs) by 16 human commensals was measured by GC-MS. All bacteria were grown in vitro until stationary growth phase before the measurement of fatty acids in supernatants. (B and C) HDAC inhibition of recombinant class I and class II HDAC isoforms by cell-free supernatants derived from 16 members of human commensal community. Significance was tested against YCFA medium. (D) Impact of bacterial SCFAs, BCFAs and MSCFAs on the activity of class I and II HDAC enzymes. TSA was used as a control pan-HDAC inhibitor.

class I HDAC isoforms = assay: HDAC inhibition of recombinant class I HDAC isoforms; assay type: biochemical; settings: cell-free supernatants vs YCFA medium; TSA as control
[2] = tested on: CD8+ cytotoxic T lymphocytes (CTLs); assay: murine CTLs cultivated under suboptimal conditions with SCFAs; cytokines and effector molecules by flow cytometry and ELISA; assay type: cell-based
Source text: It is known that the glycolytic metabolic pathway promotes IFN-γ expression and T cell effector function. […] We next investigated if acetylation of H4 was increased at CTL-characteristic loci (Ifnγ, Tbx21 and Eomes) after treatment of CTLs with pentanoate. […] Due to the high level of heterogeneity and plasticity within T lymphocytes, we next investigated possible effects of pentanoate on other CD8^+ T cell subtypes. […] To gain further insight into possible therapeutic strategies, we next investigated the impact of pentanoate on human CD8^+ T lymphocytes.
(A) Experimental design for the treatment of CTLs with the water-soluble fraction of intestinal content derived from SPF or GF mice. (B and C) Frequencies of IFN-γ- and TNF-α-producing CTLs treated with the extract from luminal content derived from indicated organs. Representative results of two experiments are shown (n=3). (D) ELISA was performed to measure the secretion of TNF-α by CLTs treated as shown in (A). (E) Quantitative measurement of total SCFA amounts in fecal samples of SPF and GF mice (n=5). (F and G) The percentage of IFN-γ^+ TNF-α^+ CTLs treated with the indicated SCFAs for three days (n=3, one of three independent experiments is shown). (H) The secretion of TNF-α from CTLs treated with SCFAs was determined by ELISA (n=3, one of two independent experiments is shown). (I) The fluorogenic HDAC assay was applied to measure the HDAC inhibitory activity of SCFAs on CTLs. The value for unstimulated CTLs was arbitrarily set to 1.0. Four independent experiments were performed. (J and K) Representative contour plots (J) and bar graphs (K) showing the frequency of IFN-γ+ and TNF-α+ cells after pentanoate (2 mM) or VPA (0.5 mM) administration. Three similar experiments were performed. (L and M) The frequency of Eomes- and T-bet-expressing CTLs treated with pentanoate (2 mM) or VPA (0.5 mM) for three days was analyzed by flow cytometry (n=4). (N) ChIP assay showing the acetylation of histone H4 at the promoter regions of Ifnγ and Eomes genes after 24 hours of treatment of CTLs with pentanoate. Data are from pooled chromatin of three mice.
Representative histogram plots (A) and bar graphs (B) are showing the frequency of Annexin V^+ cells. Three similar experiments were performed. (C) Representative effector molecule staining of CD8^+ T cells polarized under suboptimal CTL-inducing conditions, treated with pentanoate or TSA (10 nM Sigma-Aldrich) in presence of 2-DG (1 mM, Sigma-Aldrich) or rapamycin (100 nM, Sigma-Aldrich) for 3 days. Three independent experiments were performed. (D) Western blot analysis of H3Ac and H4Ac in CD8^+ T cells treated with SCFAs for 3 days. (E) Pan-H4Ac ChIP qPCR analysis for Tbx21 promoter accessibility in pentanoate-treated CTLs. Data are from pooled chromatin of three mice. (F and G) CD8^+ T cells isolated from WT and Tbx21^−/− mice were polarized under suboptimal CTL-inducing conditions in presence of increasing pentanoate concentrations. Representative contour plots (F) and bar graphs (G) show the frequency of IFN-γ+ and IL-17A^+ cells. Two similar experiments were performed. […]

## CCC(=O)O [propionate, reference compound]
HDAC
  HDAC activity of CTL-derived cell lysates: strong reduction of HDAC activity
Histones H3 and H4
  acetylation of histones H3 and H4: increased acetylation

## Nc1ccccc1NC(=O)c1ccc(CNc2nccc(-c3cccnc3)n2)cc1 [mocetinostat, reference compound]
mTOR
  phosphorylation level of S6 ribosomal protein: neither mocetinostat (HDAC class I inhibitor MGCD0103) nor TMP 195 (HDAC class II inhibitor) had a significant effect
Human CD8+ T lymphocytes
  expression of TNF-α and IFN-γ: promoted the similar effects

## CC(/C=C/C(=O)NO)=C\[C@@H](C)C(=O)c1ccc(N(C)C)cc1 [TSA, trichostatin A, reference compound]
[1]
  activity of class II HDACs: inhibited
Class I HDAC isoforms
  activity of class I HDAC isoforms: inhibited
[2]; rapamycin 100 nM co-treatment
  reversal of the effect on granzyme B+IFN-γ+ cells by rapamycin: could not be reversed
[2]; vs control CTLs, TSA 10 nM, 3 days
  percentages of granzyme B+IFN-γ+ CD8+ T cells: substantially enhanced

## CC(C)(CNC(=O)c1cccc(-c2noc(C(F)(F)F)n2)c1)c1coc(-c2ccccc2)n1 [TMP-195, reference compound]
mTOR
  phosphorylation level of S6 ribosomal protein: neither mocetinostat (HDAC class I inhibitor MGCD0103) nor TMP 195 (HDAC class II inhibitor) had a significant effect

## O=CC[C@@H](O)[C@H](O)[C@H](O)CO [2-DG, 2-deoxyglucose, reference compound]
[2]; 2-DG 1 mM or rapamycin 100 nM, 3 days
  IFN-γ production in CTLs: reduction
